Reference: ChEMBL document CHEMBL3885881, “DrugMatrix”

Species: Rattus norvegicus
Assay: DrugMatrix - Regimen: Daily Repeat
Type: toxicity, organism-based, Sprague-Dawley
Set-up: regimen Daily Repeat, gender Male, age 6-8 weeks
Settings: in vivo, iv, vehicle 100 % SALINE; for ABSOLUTE BASOPHIL / ABSOLUTE EOSINOPHIL / ABSOLUTE LYMPHOCYTE / ABSOLUTE MONOCYTE / ABSOLUTE SEGMENTED NEUTROPHIL / BASOPHIL / EOSINOPHIL / ERYTHROCYTE COUNT / HEMATOCRIT / HEMOGLOBIN / LEUKOCYTE COUNT / LYMPHOCYTE / MEAN CORPUSCULAR HEMOGLOBIN / MEAN CORPUSCULAR HEMOGLOBIN CONCENTRATION / MEAN CORPUSCULAR VOLUME / MONOCYTE / NEUTROPHIL / NUCLEATED RED BLOOD CELLS / PLATELET COUNT: tissue Blood; for ALANINE AMINOTRANSFERASE / ALBUMIN / ALKALINE PHOSPHATASE / ASPARTATE AMINOTRANSFERASE / BLOOD UREA NITROGEN / CARBON DIOXIDE / CHLORIDE / CHOLESTEROL / CREATINE PHOSPHOKINASE / CREATININE / GLUCOSE / LACTATE DEHYDROGENASE / LIPASE / PHOSPHORUS / POTASSIUM / SODIUM / TOTAL BILIRUBIN / TOTAL PROTEIN / URIC ACID: tissue Plasma
[1] = 0 mg/kg, 72 h, dose level Control, time 3 day
[2] = 0 mg/kg, 120 h, dose level Control, time 5 day
[3] = 23 mg/kg, 72 h, dose level Low, time 3 day

Nc1ccn([C@@H]2O[C@H](CO)[C@@H](O)[C@@H]2O)c(=O)n1 [CYTARABINE]
ABSOLUTE BASOPHIL [1]: 0 CELLS/uL
ABSOLUTE EOSINOPHIL [1]: 0 CELLS/uL
ABSOLUTE LYMPHOCYTE [1]: 7855.5 CELLS/uL
ABSOLUTE MONOCYTE [1]: 36.17 CELLS/uL
ABSOLUTE SEGMENTED NEUTROPHIL [1]: 575 CELLS/uL
BASOPHIL [1]: 0%
EOSINOPHIL [1]: 0%
ERYTHROCYTE COUNT [1]: 5.14 x10E6/uL
HEMATOCRIT [1]: 33.22%
HEMOGLOBIN [1]: 12.97 G/DL
LEUKOCYTE COUNT [1]: 8.47 x10E3/uL
LYMPHOCYTE [1]: 93.17%
MEAN CORPUSCULAR HEMOGLOBIN [1]: 25.28 pg
MEAN CORPUSCULAR HEMOGLOBIN CONCENTRATION [1]: 39.05 G/DL
MEAN CORPUSCULAR VOLUME [1]: 64.75 fL
MONOCYTE [1]: 0.33%
NEUTROPHIL [1]: 6.5%
NUCLEATED RED BLOOD CELLS [1]: 0 /100WBC
PLATELET COUNT [1]: 1092 x10E3/uL
ALANINE AMINOTRANSFERASE [1]: 61.67 u/L
ALBUMIN [1]: 4.03 G/DL
ALKALINE PHOSPHATASE [1]: 292.33 u/L
ASPARTATE AMINOTRANSFERASE [1]: 100.83 u/L
BLOOD UREA NITROGEN [1]: 11 mg/dL
CARBON DIOXIDE [1]: 34.67 mmol/L
CHLORIDE [1]: 100.25 MEQ/L
CHOLESTEROL [1]: 71.17 mg/dL
CREATINE PHOSPHOKINASE [1]: 554.5 u/L
CREATININE [1]: 0.31 mg/dL
GLUCOSE [1]: 151 mg/dL
LACTATE DEHYDROGENASE [1]: 88.67 u/L
LIPASE [1]: 18.83 u/L
PHOSPHORUS [1]: 10.42 mg/dL
POTASSIUM [1]: 5.7 MEQ/L
SODIUM [1]: 144.57 MEQ/L
TOTAL BILIRUBIN [1]: 0.17 mg/dL
TOTAL PROTEIN [1]: 5.8 G/DL
URIC ACID [1]: 0.52 mg/dL
ABSOLUTE BASOPHIL [2]: 0 CELLS/uL
ABSOLUTE EOSINOPHIL [2]: 53.33 CELLS/uL
ABSOLUTE LYMPHOCYTE [2]: 7739.83 CELLS/uL
ABSOLUTE MONOCYTE [2]: 74.83 CELLS/uL
ABSOLUTE SEGMENTED NEUTROPHIL [2]: 832 CELLS/uL
BASOPHIL [2]: 0%
EOSINOPHIL [2]: 0.67%
ERYTHROCYTE COUNT [2]: 5.55 x10E6/uL
HEMATOCRIT [2]: 34.77%
HEMOGLOBIN [2]: 13.62 G/DL
LEUKOCYTE COUNT [2]: 8.7 x10E3/uL
LYMPHOCYTE [2]: 89.17%
MEAN CORPUSCULAR HEMOGLOBIN [2]: 24.6 pg
MEAN CORPUSCULAR HEMOGLOBIN CONCENTRATION [2]: 39.2 G/DL
MEAN CORPUSCULAR VOLUME [2]: 62.78 fL
MONOCYTE [2]: 0.67%
NEUTROPHIL [2]: 9.5%
NUCLEATED RED BLOOD CELLS [2]: 0 /100WBC
PLATELET COUNT [2]: 1096 x10E3/uL
ALANINE AMINOTRANSFERASE [2]: 50 u/L
ALBUMIN [2]: 4.02 G/DL
ALKALINE PHOSPHATASE [2]: 271.17 u/L
ASPARTATE AMINOTRANSFERASE [2]: 84.17 u/L
BLOOD UREA NITROGEN [2]: 13.33 mg/dL
CARBON DIOXIDE [2]: 27 mmol/L
CHLORIDE [2]: 99 MEQ/L
CHOLESTEROL [2]: 68 mg/dL
CREATINE PHOSPHOKINASE [2]: 313.67 u/L
CREATININE [2]: 0.21 mg/dL
GLUCOSE [2]: 163 mg/dL
LACTATE DEHYDROGENASE [2]: 75.67 u/L
LIPASE [2]: 11.5 u/L
PHOSPHORUS [2]: 9.62 mg/dL
POTASSIUM [2]: 5.45 MEQ/L
SODIUM [2]: 143.1 MEQ/L
TOTAL BILIRUBIN [2]: 0.2 mg/dL
TOTAL PROTEIN [2]: 6.08 G/DL
URIC ACID [2]: 0.68 mg/dL
ABSOLUTE BASOPHIL [3]: 0 CELLS/uL
ABSOLUTE EOSINOPHIL [3]: 0 CELLS/uL
ABSOLUTE LYMPHOCYTE [3]: 6967 CELLS/uL
ABSOLUTE MONOCYTE [3]: 31.33 CELLS/uL
ABSOLUTE SEGMENTED NEUTROPHIL [3]: 568.33 CELLS/uL
BASOPHIL [3]: 0%
EOSINOPHIL [3]: 0%
ERYTHROCYTE COUNT [3]: 5.13 x10E6/uL
HEMATOCRIT [3]: 33.67%
HEMOGLOBIN [3]: 13.23 G/DL
LEUKOCYTE COUNT [3]: 7.57 x10E3/uL
LYMPHOCYTE [3]: 92%
MEAN CORPUSCULAR HEMOGLOBIN [3]: 25.8 pg
MEAN CORPUSCULAR HEMOGLOBIN CONCENTRATION [3]: 39.3 G/DL
MEAN CORPUSCULAR VOLUME [3]: 65.53 fL
MONOCYTE [3]: 0.33%
NEUTROPHIL [3]: 7.67%
NUCLEATED RED BLOOD CELLS [3]: 0 /100WBC
PLATELET COUNT [3]: 1145.33 x10E3/uL
ALANINE AMINOTRANSFERASE [3]: 52 u/L
ALBUMIN [3]: 4.23 G/DL
ALKALINE PHOSPHATASE [3]: 313.33 u/L
ASPARTATE AMINOTRANSFERASE [3]: 91.67 u/L
BLOOD UREA NITROGEN [3]: 11.67 mg/dL
CARBON DIOXIDE [3]: 32.33 mmol/L
CHLORIDE [3]: 99.5 MEQ/L
CHOLESTEROL [3]: 73 mg/dL
CREATINE PHOSPHOKINASE [3]: 427 u/L
CREATININE [3]: 0.31 mg/dL
GLUCOSE [3]: 163 mg/dL
LACTATE DEHYDROGENASE [3]: 93 u/L
LIPASE [3]: 13.33 u/L
PHOSPHORUS [3]: 11.2 mg/dL
POTASSIUM [3]: 5.61 MEQ/L
SODIUM [3]: 143.75 MEQ/L
TOTAL BILIRUBIN [3]: 0.1 mg/dL
TOTAL PROTEIN [3]: 6.17 G/DL
URIC ACID [3]: 0.83 mg/dL
